US10766888B1, “HMOX1 inducers” (Mitobridge Inc., priority 2019, dated 2020)
Where two headings read alike, the source gives them in different places.

System: Human Heme Oxygenase-1 (HMOX-1)
Assay: ELISA assay to measure human heme oxygenase-1 (HMOX-1) in HepG2 lysate
Type: cell-based
Procedure, shortened: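 HO-1 protein levels were read as fold change over DMSO-treated cells, with EC50 derived from these values. Quantitation used a chemiluminescent streptavidin-HRP capture ELISA, calibrated with an HO-1 standard series starting at 20 ng/ml, run at 20 °C. Samples were HepG2 lysates made with Triton X100/EDTA buffer and diluted 1:20.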

[1] = human HMOX1 protein level in HepG2 lysate, * = average of 2 or more EC50 determinations, NA = Not Active, read-out: EC50

Cn1c(Nc2nc3ccccc3o2)nc2cc(C(=O)NCCOCCO)ccc21 [Example 17, 2-(benzo[d]oxazol-2-ylamino)-N-(2-(2-hydroxyethoxy)ethyl)-1-methyl-1H-benzo[d]imidazole-5-carboxamide]
EC50 (HepG2, human HMOX1, as listed in Table 5, read-out: HMOX1 EC50 h): 1400 nM
EC50 [1]: 1400 nM

COCCNC(=O)c1ccc2c(c1)nc(Nc1nc3ccc(OCCOC)cc3o1)n2C [Example 56, 2-((6-(2-methoxyethoxy)benzo[d]oxazol-2-yl)amino)-N-(2-methoxyethyl)-1-methyl-1H-benzo[d]imidazole-5-carboxamide]
EC50 [1]: 1400 nM
